Test results: patent US20240174647A1 (NEURON23, INC., priority 2022, published 2024)
pIC50: −log10 of the molar value.

target: wt human LRRK2, catalytic site (Homo sapiens (Human), UniProt Q5S007); assay: TR-FRET LanthaScreen Tb Kinase Activity Assay (LRRK2 kinase inhibition); type: biochemical; conditions: 2 nM wt human LRRK2, 400 nM fluorescein-ERM (LRRKtide) peptide, 38 μM ATP, 120 minutes at room temperature
Procedure: The compounds in Table 1 were tested for their inhibitory effect on LRRK2 kinase according to the following procedures.
The protocol for basic TR-FRET LanthaScreen Tb Kinase Activity Assay inhibitor studies were as follows. LanthaScreen Kinase Activity Assays (ThermoFisher/USA) to evaluate inhibitors were performed by addition of 100 nL of test compound in corresponding DMSO dilutions/5 μL of kinase/fluorescein-ERM(LRRKtide) peptide mixture, 5 μL of ATP into 384 well small volume plates. After incubation for 120 minutes at room temperature, the detection reagents containing Tb-anti-pLRRKtide antibody were added to monitor phosphrylation level of peptide. Then, after 60 min minutes incubation at room temperature plates were read in Envision. Data analysis of emission ratios was according to LanthaScreen Tb Kinase Activity Assay protocol.
Kinase and assay components were adjusted to final concentrations according to the kit protocol. For LRRK2: 2 nM wt human LRRK2, catalytic site, catalytic site (ThermoFisher/USA), 400 nM peptide, 38 μM ATP in 1× Kinase Buffer A.
Basic protocol for TR-FRET LanthaScreen Tb Kinase Activity Assay inhibitor studies involved two steps: • Enzymatic step: Addition of 100 nL of test compound in corresponding DMSO dilutions, 5 μL of kinase/substrate mixture, 5 μL of ATP into 384 well small volume plates. Incubation for 120 minutes at room temperature. • Detection step: Addition of 10 μL EDTA & antibody, read plate after 60 minutes. Data analysis of emission ratios according to KinEASE assay protocol.
Kinase and assay components were adjusted to final concentrations according to the kit protocol.
In the table below, activity is provided as follows: +++=IC50 less than 50 nM; ++=IC50 between 50 nM and 200 nM; +=IC50>=200 nM

Chain of wt human LRRK2, catalytic site (Q5S007 1879-2138): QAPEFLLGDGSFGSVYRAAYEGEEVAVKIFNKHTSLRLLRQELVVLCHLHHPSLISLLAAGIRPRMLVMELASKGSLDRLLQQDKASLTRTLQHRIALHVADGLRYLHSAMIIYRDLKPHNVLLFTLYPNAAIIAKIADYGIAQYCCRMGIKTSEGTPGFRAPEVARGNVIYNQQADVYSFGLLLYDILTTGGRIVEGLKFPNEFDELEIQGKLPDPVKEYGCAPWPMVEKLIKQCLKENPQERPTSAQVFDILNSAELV

SMILES	pIC50
CNc1nc(Nc2c(OC)ccc3nn(C)cc23)ncc1C(F)(F)F [Example 40, N2-(5-methoxy-2-methyl-2H-indazol-4-yl)-N-methyl-5-(trifluoromethyl) pyrimidine-2,4-diamine]	≤ 6.70
CNc1nc(Nc2c(F)ccc3nn(C)cc23)ncc1C(F)(F)F [Example 41, N2-(5-fluoro-2-methyl-2H-indazol-4-yl)-N4-methyl-5-(trifluoromethyl) pyrimidine-2,4-diamine]	≤ 6.70
CNc1nc(Nc2cc(F)cc3c2cnn3C)ncc1C(F)(F)F [Example 42, N2-(6-fluoro-1-methyl-1H-indazol-4-yl)-N4-methyl-5-(trifluoromethyl) pyrimidine-2,4-diamine]	> 7.30
CNc1nc(Nc2cc(C(C)C)cc3c2cnn3C)ncc1C(F)(F)F [Example 43, N2-(6-isopropyl-1-methyl-1H-indazol-4-yl)-N4-methyl-5-(trifluoromethyl) pyrimidine-2,4-diamine]	> 7.30
CNc1nc(Nc2cc(C#N)cc3c2cnn3C)ncc1C(F)(F)F [Example 44, 1-methyl-4-((4-(methylamino)-5-(trifluoromethyl)pyrimidin-2-yl)amino)-1H-indazole-6-carbonitrile]	> 7.30
CNc1nc(Nc2cc(C)cc3c2cnn3C)ncc1C(F)(F)F [Example 45, N2-(1,6-dimethyl-1H-indazol-4-yl)-N4-methyl-5-(trifluoromethyl)pyrimidine-2,4-diamine]	> 7.30
CNc1nc(Nc2cc(/C=C/C(=O)N3CCOCC3)cc3c2cnn3C)ncc1C(F)(F)F [Example 46, (E)-3-(1-methyl-4-((4-(methylamino)-5-(trifluoromethyl)pyrimidin-2-yl)amino)-1H-indazol-6-yl)-1-morpholinoprop-2-en-1-one]	> 7.30
CNc1nc(Nc2ccc(OC)c3c2cnn3C)ncc1C(F)(F)F [Example 47, N2-(7-methoxy-1-methyl-1H-indazol-4-yl)-N4-methyl-5-(trifluoromethyl) pyrimidine-2,4-diamine]	> 7.30
CNc1nc(Nc2cccc3[nH]nc(C)c23)ncc1C(F)(F)F [Example 48, N4-methyl-N2-(3-methyl-1H-indazol-4-yl)-5-(trifluoromethyl)pyrimidine-2,4-diamine]	6.70 to 7.30
CNc1nc(Nc2cc(C#N)cc3[nH]ncc23)ncc1C(F)(F)F [Example 49, 4-((4-(methylamino)-5-(trifluoromethyl)pyrimidin-2-yl)amino)-1H-indazole-6-carbonitrile]	> 7.30
CNc1nc(Nc2cc(CC#N)cc3[nH]ncc23)ncc1C(F)(F)F [Example 50, 2-(4-((4-(methylamino)-5-(trifluoromethyl)pyrimidin-2-yl)amino)-1H-indazol-6-yl)acetonitrile]	> 7.30
CNc1nc(Nc2cc(CC#N)cc3c2cnn3C)ncc1C(F)(F)F [Example 51, 2-(1-methyl-4-((4-(methylamino)-5-(trifluoromethyl)pyrimidin-2-yl)amino)-1H-indazol-6-yl)acetonitrile]	> 7.30
CNc1nc(Nc2cc(/C=C/C(=O)N3CCOCC3)cc3[nH]ncc23)ncc1C(F)(F)F [Example 52]	> 7.30
CNc1nc(Nc2cc(CCC(=O)N3CCOCC3)cc3[nH]ncc23)ncc1C(F)(F)F [Example 53, 3-(4-((4-(methylamino)-5-(trifluoromethyl)pyrimidin-2-yl)amino)-1H-indazol-6-yl)-1-morpholinopropan-1-one]	6.70 to 7.30
CNc1nc(Nc2cc(CCC(=O)N3CCOCC3)cc3c2cnn3C)ncc1C(F)(F)F [Example 54, 3-(1-methyl-4-((4-(methylamino)-5-(trifluoromethyl)pyrimidin-2-yl)amino)-1H-indazol-6-yl)-1-morpholinopropan-1-one]	6.70 to 7.30
CNc1nc(Nc2ccc(CC#N)c3c2cnn3C)ncc1C(F)(F)F [Example 55, 2-(1-methyl-4-((4-(methylamino)-5-(trifluoromethyl)pyrimidin-2-yl)amino)-1H-indazol-7-yl)acetonitrile]	> 7.30
CNc1nc(Nc2ccc(/C=C/C(=O)N3CCOCC3)c3[nH]ncc23)ncc1C(F)(F)F [Example 56, (E)-3-(4-((4-(methylamino)-5-(trifluoromethyl)pyrimidin-2-yl)amino)-1H-indazol-7-yl)-1-morpholinoprop-2-en-1-one]	> 7.30
CNc1nc(Nc2ccc(CCC(=O)N3CCOCC3)c3[nH]ncc23)ncc1C(F)(F)F [Example 57, 3-(4-((4-(methylamino)-5-(trifluoromethyl)pyrimidin-2-yl)amino)-1H-indazol-7-yl)-1-morpholinopropan-1-one]	> 7.30

SMILES	pIC50
CNc1nc(Nc2ccc(CCC(=O)N3CCOCC3)c3c2cnn3C)ncc1C(F)(F)F [Example 58, 3-(1-methyl-4-((4-(methylamino)-5-(trifluoromethyl)pyrimidin-2-yl)amino)-1H-indazol-7-yl)-1-morpholinopropan-1-one]	> 7.30
CNc1nc(Nc2ccc(/C(C)=C/C(=O)N3CCOCC3)c3c2cnn3C)ncc1C(F)(F)F [Example 59, (E)-3-(1-methyl-4-((4-(methylamino)-5-(trifluoromethyl)pyrimidin-2-yl)amino)-1H-indazol-7-yl)-1-morpholinobut-2-en-1-one]	> 7.30
CNc1nc(Nc2ccc(C(C)CC(=O)N3CCOCC3)c3c2cnn3C)ncc1C(F)(F)F (stereo not drawn) [Example 60, 3-(1-methyl-4-((4-(methylamino)-5-(trifluoromethyl)pyrimidin-2-yl)amino)-1H-indazol-7-yl)-1-morpholinobutan-1-one]	> 7.30
CNc1nc(Nc2cnn3ccccc23)ncc1C(F)(F)F [Example 61, N4-methyl-N2-(pyrazolo[1,5-a]pyridin-3-yl)-5-(trifluoromethyl)pyrimidine-2,4-diamine]	> 7.30
CNc1nc(Nc2c(C)nn3ccccc23)ncc1C(F)(F)F [Example 62, N4-methyl-N2-(2-methylpyrazolo[1,5-a]pyridin-3-yl)-5-(trifluoromethyl) pyrimidine-2,4-diamine]	6.70 to 7.30
CNc1nc(Nc2c(C)[nH]c3ccccc23)ncc1C(F)(F)F [Example 63, N4-methyl-N2-(2-methyl-1H-indol-3-yl)-5-(trifluoromethyl)pyrimidine-2,4-diamine]	6.70 to 7.30
CNc1nc(Nc2c(C)n(C)c3ccccc23)ncc1C(F)(F)F [Example 64, N2-(1,2-dimethyl-1H-indol-3-yl)-N4-methyl-5-(trifluoromethyl)pyrimidine-2,4-diamine]	6.70 to 7.30
CNc1nc(Nc2c(C)nn3c(C#N)cccc23)ncc1C(F)(F)F [Example 65, 2-methyl-3-((4-(methylamino)-5-(trifluoromethyl)pyrimidin-2-yl)amino)pyrazolo[1,5-a]pyridine-7-carbonitrile]	≤ 6.70
CNc1nc(Nc2c(C)[nH]c3c(C#N)cccc23)ncc1C(F)(F)F [Example 66, 2-methyl-3-((4-(methylamino)-5-(trifluoromethyl)pyrimidin-2-yl)amino)-1H-indole-7-carbonitrile]	6.70 to 7.30
CNc1nc(Nc2nn(C)c3ccccc23)ncc1C(F)(F)F [Example 67, N4-methyl-N2-(1-methyl-1H-indazol-3-yl)-5-(trifluoromethyl)pyrimidine-2,4-diamine]	≤ 6.70
Cn1ncc2c(Nc3ncc(C(F)(F)F)c(NC4CC4)n3)cccc21 [Example 68, N4-cyclopropyl-N2-(1-methyl-1H-indazol-4-yl)-5-(trifluoromethyl)pyrimidine-2,4-diamine]	> 7.30
CCNc1nc(Nc2cccc3c2cnn3C)ncc1C(F)(F)F [Example 69, N4-ethyl-N2-(1-methyl-1H-indazol-4-yl)-5-(trifluoromethyl)pyrimidine-2,4-diamine]	> 7.30
CCNc1nc(Nc2cccc3c2cnn3C)ncc1Cl [Example 70, 5-chloro-N4-ethyl-N2-(1-methyl-1H-indazol-4-yl)pyrimidine-2,4-diamine]	> 7.30
Cn1ncc2c(Nc3ncc(Cl)c(NC4CC4)n3)cccc21 [Example 71, 5-chloro-N4-cyclopropyl-N2-(1-methyl-1H-indazol-4-yl)pyrimidine-2,4-diamine]	> 7.30
CNc1nc(Nc2ccc3[nH]ncc3c2)ncc1C(F)(F)F [Example 72, N2-(1H-indazol-5-yl)-N4-methyl-5-(trifluoromethyl)pyrimidine-2,4-diamine]	> 7.30
CNc1nc(Nc2ccc3c(cnn3C)c2)ncc1C(F)(F)F [Example 73, N4-methyl-N2-(1-methyl-1H-indazol-5-yl)-5-(trifluoromethyl)pyrimidine-2,4-diamine]	> 7.30
CNc1nc(Nc2ccc3nn(C)cc3c2)ncc1C(F)(F)F [Example 74, N4-methyl-N2-(2-methyl-2H-indazol-5-yl)-5-(trifluoromethyl)pyrimidine-2,4-diamine]	> 7.30
CNc1nc(Nc2cccc3cn[nH]c23)ncc1C(F)(F)F [Example 75, N2-(1H-indazol-7-yl)-N4-methyl-5-(trifluoromethyl)pyrimidine-2,4-diamine]	6.70 to 7.30
